According to patent US5314877A, “Water-soluble pentacyclic triterpene composition and method for producing the same” (Hokkaido Sugar Co., Ltd., priority 1990, dated 1994):
“Also recorded” adds a separate entry of the source.

Assay: Pharmacological function of triterpenes (earlier experiments and reports)
Settings: inventors' experiments, no data given

In the case of `CC1(C)CC[C@]2(C(=O)O)CC[C@]3(C)C(=CC[C@@H]4[C@@]5(C)CC[C@H](O)C(C)(C)[C@@H]5CC[C@]43C)[C@@H]2C1` [oleanolic acid, Oleanolic acid], the “Pharmacological function of oleanolic acid from sugar beet” value is reported as “antibiosis to a tumor and hepatitis; also recorded: cariostatic (insoluble glucanynthesis inhibition)”.
